Results: ChEMBL document CHEMBL1126148, “Synthesis of halogenated trimetoquinol derivatives and evaluation of their beta-agonist and thromboxane A2 (TXA2) antagonist activities” (J Med Chem, 1992)

How the values were obtained:
[1] = biological target: T1, Beta-1 adrenergic receptor (Cavia porcellus, UniProt B0FL73); assay: (§1) Inhibitory activity against Beta-1 adrenergic receptor in guinea pig atria after treatment with the compound
[2] = biological target: T2, Beta-2 adrenergic receptor (Cavia porcellus, UniProt Q8K4Z4); assay: Agonist activity at Beta-2 adrenergic receptor in guinea pig trachea after treatment with the compound
T2 sequence (Q8K4Z4 whole entry): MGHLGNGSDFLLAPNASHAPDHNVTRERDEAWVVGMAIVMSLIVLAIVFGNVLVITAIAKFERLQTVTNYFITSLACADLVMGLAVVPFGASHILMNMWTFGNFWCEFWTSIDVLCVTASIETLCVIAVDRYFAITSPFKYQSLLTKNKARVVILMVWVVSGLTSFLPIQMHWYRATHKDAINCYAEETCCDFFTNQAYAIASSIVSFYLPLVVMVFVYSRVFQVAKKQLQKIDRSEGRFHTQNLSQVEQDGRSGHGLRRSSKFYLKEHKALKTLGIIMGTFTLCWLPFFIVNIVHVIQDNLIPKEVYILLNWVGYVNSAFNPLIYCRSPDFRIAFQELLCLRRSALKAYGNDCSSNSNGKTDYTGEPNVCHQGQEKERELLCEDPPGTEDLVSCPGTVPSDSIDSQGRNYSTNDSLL

Homo sapiens = species on record: Homo sapiens; assay: (§2) Potency ratio was measured as EC50 (trimetoquinol )/EC50 (drug); type: functional
Rattus norvegicus = species on record: Rattus norvegicus; assay: as §2; type: functional
[3] = biological target: T3, Thromboxane A2 receptor (Rattus norvegicus) (UniProt P34978); assay: (§3) Inhibitory activity against […]-mediated contraction of rat thoracic aorta (Thromboxane A2 tau receptor); type: tissue-based
T3 sequence (whole entry): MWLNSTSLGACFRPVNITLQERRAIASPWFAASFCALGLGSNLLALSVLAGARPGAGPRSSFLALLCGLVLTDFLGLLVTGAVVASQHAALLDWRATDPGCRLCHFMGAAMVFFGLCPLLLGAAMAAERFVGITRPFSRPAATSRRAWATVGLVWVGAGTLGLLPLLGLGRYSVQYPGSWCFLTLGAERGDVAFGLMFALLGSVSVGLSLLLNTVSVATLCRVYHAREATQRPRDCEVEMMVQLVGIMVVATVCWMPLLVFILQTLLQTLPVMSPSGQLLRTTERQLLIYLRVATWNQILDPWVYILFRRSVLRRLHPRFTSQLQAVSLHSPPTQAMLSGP

[4] = biological target: T3, Thromboxane A2 receptor (Rattus norvegicus); assay: as §3; type: functional, tissue-based
[5] = biological target: Beta-1 adrenergic receptor (Cavia porcellus) (UniProt B0FL73); assay: Maximum response of drug relative to the response of 10e-5 isoproterenol after treatment with the compound; type: functional
Sequence of Beta-1 adrenergic receptor (Cavia porcellus) (B0FL73 1-467): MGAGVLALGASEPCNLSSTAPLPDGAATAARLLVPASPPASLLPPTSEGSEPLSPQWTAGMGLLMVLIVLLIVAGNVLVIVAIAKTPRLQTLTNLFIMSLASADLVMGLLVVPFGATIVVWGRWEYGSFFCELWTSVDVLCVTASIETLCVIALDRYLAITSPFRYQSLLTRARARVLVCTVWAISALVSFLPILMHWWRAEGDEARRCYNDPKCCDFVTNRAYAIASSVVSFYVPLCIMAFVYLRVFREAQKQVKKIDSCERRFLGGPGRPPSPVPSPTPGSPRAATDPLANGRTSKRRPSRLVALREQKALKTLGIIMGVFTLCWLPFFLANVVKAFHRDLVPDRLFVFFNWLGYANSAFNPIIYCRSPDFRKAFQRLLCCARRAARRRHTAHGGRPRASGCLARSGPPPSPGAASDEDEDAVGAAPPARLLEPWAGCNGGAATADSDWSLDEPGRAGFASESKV

[6] = biological target: Beta-1 adrenergic receptor (Cavia porcellus) (UniProt B0FL73); assay: as §1
[7] = biological target: T1, Beta-1 adrenergic receptor; assay: Binding affinity against Beta-1 adrenergic receptor in guinea pig left ventricle
[8] = biological target: T2, Beta-2 adrenergic receptor; assay: Binding affinity against Beta-2 adrenergic receptor in guinea pig lung membranes; type: cell membranes, Membrane

T1 sequence (B0FL73 whole entry): as the sequence (B0FL73 1-467) above

`COc1cc(CC2NCCc3c(F)c(O)c(O)c(F)c32)cc(OC)c1OC` (configuration not stated) gave an EC50 [1] of 501 nM, an EC50 [2] of 240 nM and a Potency ratio (Homo sapiens) of 0.00277. For the same molecule, the Potency ratio (Rattus norvegicus) was 0.00708 and the pKB [3] was 3.98.
Molecule `COc1cc(C[C@H]2NCCc3cc(O)c(O)c(F)c32)cc(OC)c1OC` has a pKB [4] of 5.63.
`COc1cc(CC2NCCc3c2cc(O)c(O)c3I)cc(OC)c1OC` (configuration not stated) gave an EC50 [1] greater than 31600 nM, an EC50 [2] of 2240 nM and an Intrinsic activity [5] of 0.39. The Potency ratio (Homo sapiens) was 0.002, the Potency ratio (Rattus norvegicus) was 0.07 and the pKB [3] was 4.31.
Molecule `COc1cc(CC2NCCc3cc(O)c(O)c(I)c32)cc(OC)c1OC` (configuration not stated) has an EC50 [1] of 2950 nM, an EC50 [2] of 1170 nM and an Intrinsic activity [5] of 0.81. For the same molecule, the Potency ratio (Homo sapiens) was 0.09, the Potency ratio (Rattus norvegicus) was 0.24 and the pKB [3] was 4.84.
With `COc1cc(CC2NCCc3c2cc(O)c(O)c3C(F)(F)F)cc(OC)c1OC` (configuration not stated) the pKB [6] was 5.32, the Potency ratio (Homo sapiens) was 0.000525 and the Potency ratio (Rattus norvegicus) was 0.00372. It also gave a pKB [3] of 3.7.
In the case of `COc1cc(C[C@@H]2NCCc3cc(O)c(O)cc32)cc(OC)c1OC` [TRETOQUINOL], the EC50 [1] is reported as 174 nM, the Ki [7] is reported as 87.1 nM and the EC50 [2] is reported as 26.3 nM. The Ki [8] was 49 nM and the pKB [4] was 5.46.
